From patent US5654436A, “2-substituted benzimidazole derivatives” (American Home Products Corporation, priority 1995, dated 1997)
Read-outs that look alike come from different tables or passages of the source.

Test system: Porcine Smooth Muscle Cell
Assay: Inhibition of smooth muscle cell proliferation (3H-thymidine, serum or PDGF stimulated)
Assay type: cell-based
Details: Sus scrofa, porcine aortic smooth muscle cells, 24-36 hours; for inhibition at 10 µM: read-out: Porcine Smooth Muscle Cell Antiproliferation % Inhibition at x Concentration, Serum
Procedure: The ability of the compounds of the present invention to inhibit smooth muscle cell proliferation was established using isolated porcine nortic smooth muscle cells in a modification of the procedure of Casteliot et al. J. Biol. Chem 257(19) 11256 (1982), as follows:
Fresh porcine aortas, scrupulously cleansed of fatty tissue, are rinsed in sterile phosphate-buffered saline with 2% antibiotic-antimycotic (100×) liquid ( 10,000 units of penicillin (base), 10,000 μg of streptomycin (base), and 25 μg of amphotericin B/mL utilizing penicillin G (sodium salt), streptomycin sulfate, and amphotericin B as Fungizone® in 0.85% saline, available from Gibco Laboratories, Grand Island Biological Co., Grand Island, N.Y.). The tissue is then digested in 10-15 mL of an enzyme solution containing collagerinse type I, 165 U/mL; elastase type III, 15 U/mL; BSA, 2 mg/mL; and soybean trypsin inhibitor, 0.375 mg/mL, followed by incubation at 37° C. under 5% CO2 atmosphere for 10 to 15 minutes. After this treatment, the outer surface adventitia is removed by peeling with a forceps. The aorta is then longitudinally cut and laid open and the endothelial layer is removed by scraping.
The medial layer of cells is rinsed in the enzyme solution, and placed in a new 100 mm dish with 10 mL of enzyme solution. The medial layer of cells is minced using a fine pair of scissors and digested for 2-3 hours at 37° C. in 30 mL of fresh enzyme solution. After digestion, the medial tissue is homogenized using a sterile Pasteur pipette with a fire polished tip or an Eppendorf pipetter with a 200-1000 gL sterile pipette tip. The suspension is then centrifuged for 10 minutes at 8000 rpm and the pellet is suspended in 4-6 mL of fresh enzyme solution and plated onto 4-6 100 mm flasks with vented caps. The cells are then allowed to grow to confluence and split using 0.25% trypsin. The cells are evaluated for purity and overall quality using antibody to SMC actin.
The cells are assayed in early passage (generally passage 3-7) at sub-confluent conditions. Cultures are grown in 16 mm (24 well) multi-well culture dishes in media 199 supplemented with 10% fetal bovine serum and 2% antibiotic/antimycotic. At subconfluence, the cells are placed in a defined serum free, lymphocyte medium (AIM-V; Gibeo) for 24-48 hours prior to initiating the experimental protocol.
The standard test procedure is initiated by addition of the test compound, ^3 H-thymidine and serum or a specific growth factor to the serum deprived synchronized cells. Growth factor and serum stimulations are optimized for each cell type. The test compounds are added to each well at 50 fold dilution (20 μL/well) and the plates are incubated for 24-36 hours at 37° C. in 5% CO2 atmosphere. Test compounds are dissolved in 50% ethanol and assayed at 1, 10, and 100 μM. As a control, RG 50872 (Bilder, G. A.; et al., Am. J. Cell Physiol., 1991; 260: C721) is routinely assayed under the conditions of each cell preparation at a concentration of 5 μM.
At the completion of the experiment, the plates are placed on ice, washed three times with ice cold PBS and incubated in ice cold 10% trichloroacetic acid (TCA) for 30 minutes to remove acid soluble proteins. Each solution is transferred to a scintillation vial containing 0.4N HCl (500 μL/vial to neutralize NaOH) and each well is rinsed two times with water (500 μL) for a total volume of 2 mL/vial.
Data is quantitated by subjecting the vials to a scintillation counter, in triplicate, for both control and experimental samples. Control (100%) data is obtained from maximally stimulated cells, as the result of growth factor or serum stimulation. Experimental data is obtained from cells maximally stimulated with growth factor or serum and treated with a test compound. (The platelet-derived growth factor used in the assay was human recombinant PDGF-AB purchased from Upstate Biotechnology Inc., Lake Placid, N.Y.). Data is expressed as a percent of control from which IC50 s are determined.

[1] = human recombinant PDGF-AB stimulated, read-out: Porcine Smooth Muscle Cell Antiproliferation IC50, PDGF

Row | Compound | IC50 [1] [nM] | inhibition at 10 µM (serum stimulated) [%] | IC50 (serum stimulated, read-out: Porcine Smooth Muscle Cell Antiproliferation IC50, Serum) [nM]
1 | Clc1ccc(Cn2c(-c3ccccn3)nc3ccccc32)cc1Cl [Example 1, 1-(3,4-Dichiorobenzyl)-2-pyridin-2-yl-1H-benzoimidazole] | 4400 | 39.8 | 
2 | COC(=O)c1ccc(Cn2c(-c3ccccn3)nc3ccccc32)cc1 [Example 2, 4-[2-(Pyridin-2-yl)-benzoimidazol-1-ylmethyl]-benzoic acid methyl ester] | 1100 | 38.4 | 
3 | COC(=O)c1ccc(Cn2c(C(F)(F)F)nc3cc(C)c(C)cc32)cc1 [Example 3, 4-(5,6-Dimethyl-2-trifluoromethyl-benzoimidazol-1-ylmethyl)-benzoic acid methyl ester] | 2470 | 41.3 | 
4 | CCCc1nc2cc([N+](=O)[O-])ccc2n1Cc1ccc(C(=O)OCC)cc1 [Example 4, 4-(5-Nitro-2-propyl-benzoimidazol-1-ylmethyl)-benzoic acid ethyl ester] | 760 |  | 660
